Laboratory results taken from patent US20190071416A1, “COMPOUNDS FOR TREATMENT OF CANCER AND EPIGENETICS” (Agency For Science, Technology and Research, priority 2015, published 2019).

Molecular target: T1, SMYD3 (Homo sapiens, UniProt Q9H7B4)
T1 sequence (Q9H7B4 1-428): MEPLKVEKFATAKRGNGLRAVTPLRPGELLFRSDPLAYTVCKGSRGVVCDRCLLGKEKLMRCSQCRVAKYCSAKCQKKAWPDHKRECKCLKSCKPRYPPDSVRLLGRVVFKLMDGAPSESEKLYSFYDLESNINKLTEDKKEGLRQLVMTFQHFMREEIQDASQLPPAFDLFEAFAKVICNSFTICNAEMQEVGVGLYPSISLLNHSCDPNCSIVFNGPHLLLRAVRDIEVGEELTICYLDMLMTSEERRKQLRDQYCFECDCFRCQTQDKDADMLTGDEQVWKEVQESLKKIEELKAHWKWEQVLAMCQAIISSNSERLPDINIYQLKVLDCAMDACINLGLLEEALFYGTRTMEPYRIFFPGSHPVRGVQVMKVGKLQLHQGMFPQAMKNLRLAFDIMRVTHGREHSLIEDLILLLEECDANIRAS
Experiment: SMYD3 biochemical assay (MTase-Glo, MAP3K2 peptide substrate)
Conditions: Table 3; MTase assay, MAP3K2 peptide substrate; read-out: IC50
Procedure, shortened: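 Methylation of MAP3K2 peptide (10 µM final) with SAM (1.0 µM final) by SMYD3, 30 min at room temperature. SAH formed was enzymatically converted to ATP and detected as luminescence with MTase-Glo reagents; IC50 by non-linear regression.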

Going from CCCOC(=O)N1CCN(C(=O)c2ccc3c(Cl)cc(-c4ccc(OC)c(CO)c4)nc3c2)CC1 [B100, Propyl 4-(4-chloro-2-(3-(hydroxymethyl)-4-methoxyphenyl)quinoline-7-carbonyl)piperazine-1-carboxylate] to CCCOC(=O)N1CCN(C(=O)c2ccc3c(Cl)cc(-c4ccc(OC)c(CNC)c4)nc3c2)CC1 [B120, Propyl 4-(4-chloro-2-(4-methoxy-3-((methylamino)methyl)phenyl)quinoline-7-carbonyl)piperazine-1-carboxylate], the IC50 falls from 110 nM to 35 nM (3.1-fold). The second is the more potent here.

Compared with CCCOC(=O)N1CCN(C(=O)c2ccc3c(Cl)cc(-c4ccc(C#N)c(C)c4)nc3c2)CC1 [B101, Propyl 4-(4-chloro-2-(4-cyano-3-methylphenyl)quinoline-7-carbonyl)piperazine-1-carboxylate], CCCOC(=O)N1CCN(C(=O)c2ccc3c(Cl)cc(-c4ccc(CN)c(C)c4)nc3c2)CC1 [B108, Propyl 4-(2-(4-(aminomethyl)-3-methylphenyl)-4-chloroquinoline-7-carbonyl)piperazine-1-carboxylate] is 15-fold lower in IC50: 1800 nM for the first, 120 nM for the second.

Compared with CCCOC(=O)N1CCN(C(=O)c2ccc3c(Cl)cc(-c4cccc(C(=O)N(C)C)c4)nc3c2)CC1 [B102, Propyl 4-(4-chloro-2-(3-(dimethylcarbamoyl)phenyl)quinoline-7-carbonyl)piperazine-1-carboxylate], CCCOC(=O)N1CCN(C(=O)c2ccc3c(Cl)cc(-c4cccc(CN(C)C)c4)nc3c2)CC1 [B112, Propyl 4-(4-chloro-2-(3-((dimethylamino)methyl)phenyl)quinoline-7-carbonyl)piperazine-1-carboxylate] is 3.8-fold lower in IC50: 530 nM for the first, 140 nM for the second.

First: CCCOC(=O)N1CCN(C(=O)c2ccc3c(Cl)cc(-c4ccc(S(N)(=O)=O)cc4)nc3c2)CC1 [B103, Propyl 4-(4-chloro-2-(4-sulfamoylphenyl)quinoline-7-carbonyl)piperazine-1-carboxylate]
Second: CCCOC(=O)N1CCN(C(=O)c2ccc3c(Cl)cc(-c4ccc(S(=O)(=O)NC)cc4)nc3c2)CC1 [B116, Propyl 4-(4-chloro-2-(4-(N-methylsulfamoyl)phenyl)quinoline-7-carbonyl)piperazine-1-carboxylate]
The IC50 of the first is 3.3-fold lower: 130 nM for the first, 430 nM for the second.

CCCOC(=O)N1CCN(C(=O)c2ccc3c(Cl)cc(-c4ccc(OC)c(CN(C)C)c4)nc3c2)CC1 [B104, Propyl 4-(4-chloro-2-(3-((dimethylamino)methyl)-4-methoxyphenyl)quinoline-7-carbonyl)piperazine-1-carboxylate] and CCCOC(=O)N1CCN(C(=O)c2ccc3c(Cl)cc(-c4ccc(CN(C)C)cc4)nc3c2)CC1 [B110, Propyl 4-(4-chloro-2-(4-((dimethylamino)methyl)phenyl)quinoline-7-carbonyl)piperazine-1-carboxylate] are within 1.5-fold of each other in IC50: 120 nM for the first, 160 nM for the second.

CCCOC(=O)N1CCN(C(=O)c2ccc3c(Cl)cc(-c4cccc(CN5CCOCC5)c4)nc3c2)CC1 [B105, Propyl 4-(4-chloro-2-(3-(morpholinomethyl)phenyl)quinoline-7-carbonyl)piperazine-1-carboxylate] and CCCOC(=O)N1CCN(C(=O)c2ccc3c(Cl)cc(-c4cccc(S(N)(=O)=O)c4)nc3c2)CC1 [B117, Propyl 4-(4-chloro-2-(3-sulfamoylphenyl)quinoline-7-carbonyl)piperazine-1-carboxylate] are within 1.5-fold of each other in IC50: 860 nM for the first, 920 nM for the second.

First: CCCOC(=O)N1CCN(C(=O)c2ccc3c(Cl)cc(-c4ccc(OC)c(C#N)c4)nc3c2)C[C@H]1C [B106, Propyl (R)-4-(4-chloro-2-(3-cyano-4-methoxyphenyl)quinoline-7-carbonyl)-2-methylpiperazine-1-carboxylate]
Second: CCCOC(=O)N1CCN(C(=O)c2ccc3c(Cl)cc(-c4ccc(OC)c(CN)c4)nc3c2)C[C@H]1C [B107, Propyl (R)-4-(2-(3-(aminomethyl)-4-methoxyphenyl)-4-chloroquinoline-7-carbonyl)-2-methylpiperazine-1-carboxylate]
The IC50 of the first is 7.4-fold higher: 560 nM for the first, 76 nM for the second. The second is the more potent here.

Compared with CCCOC(=O)N1CCN(C(=O)c2ccc3c(Cl)cc(C4(C)CC4)nc3c2)C[C@H]1C [B109, Propyl (R)-4-(4-chloro-2-(1-methylcyclopropyl)quinoline-7-carbonyl)-2-methylpiperazine-1-carboxylate], CCCOC(=O)N1CCN(C(=O)c2ccc3c(Cl)cc(C4(C)CC4)nc3c2)CC1 [B133, Propyl 4-(4-chloro-2-(1-methylcyclopropyl)quinoline-7-carbonyl)piperazine-1-carboxylate] is 3.7-fold higher in IC50: 380 nM for the first, 1400 nM for the second.

Going from CCCOC(=O)N1CCN(C(=O)c2ccc3c(Cl)cc(-c4cccc(CN(C)C)c4)nc3c2)C[C@H]1C [B111, Propyl (R)-4-(4-chloro-2-(3-((dimethylamino)methyl)phenyl)quinoline-7-carbonyl)-2-methylpiperazine-1-carboxylate] to CCCOC(=O)N1CCN(C(=O)c2ccc3c(Cl)cc(-c4cccc(CNC)c4)nc3c2)C[C@H]1C [B124, Propyl (R)-4-(4-chloro-2-(3-((methylamino)methyl)phenyl)quinoline-7-carbonyl)-2-methylpiperazine-1-carboxylate], the IC50 falls from 220 nM to 60 nM (3.7-fold). The second is the more potent here.

CCCOC(=O)N1CCN(C(=O)c2ccc3c(Cl)c(C)c(-c4ccc(C(N)=O)cc4)nc3c2)C[C@H]1C [B113, Propyl (R)-4-(2-(4-carbamoylphenyl)-4-chloro-3-methylquinoline-7-carbonyl)-2-methylpiperazine-1-carboxylate] and CCCOC(=O)N1CCN(C(=O)c2ccc3c(Cl)c(C)c(-c4ccc(CN)cc4)nc3c2)C[C@H]1C [B122, Propyl (R)-4-(2-(4-(aminomethyl)phenyl)-4-chloro-3-methylquinoline-7-carbonyl)-2-methylpiperazine-1-carboxylate] are within 1.5-fold of each other in IC50: 92 nM for the first, 70 nM for the second.

Compared with CCCOC(=O)N1CCN(C(=O)c2ccc3c(Cl)c(C)c(-c4ccc(C#N)cc4)nc3c2)C[C@H]1C [B114, Propyl (R)-4-(4-chloro-2-(4-cyanophenyl)-3-methylquinoline-7-carbonyl)-2-methylpiperazine-1-carboxylate], CCCOC(=O)N1CCN(C(=O)c2ccc3c(Cl)cc(-c4ccc(CNC)cc4)nc3c2)C[C@H]1C [B119, Propyl (R)-4-(4-chloro-2-(4-((methylamino)methyl)phenyl)quinoline-7-carbonyl)-2-methylpiperazine-1-carboxylate] is 10-fold lower in IC50: 420 nM for the first, 42 nM for the second. The second is the more potent here.

Compared with CCCOC(=O)N1CCN(C(=O)c2ccc3c(Cl)cc(-c4ccnc(C)c4)nc3c2)CC1 [B115, Propyl 4-(4-chloro-2-(2-methylpyridin-4-yl)quinoline-7-carbonyl)piperazine-1-carboxylate], CCCOC(=O)N1CCN(C(=O)c2ccc3c(Cl)cc(-c4ccn(C)c4)nc3c2)CC1 [B130, Propyl 4-(4-chloro-2-(1-methyl-1H-pyrrol-3-yl)quinoline-7-carbonyl)piperazine-1-carboxylate] is 34-fold lower in IC50: 780 nM for the first, 23 nM for the second. The second is the more potent here.

Compared with CCCOC(=O)N1CCN(C(=O)c2ccc3c(Cl)cc(-c4ccc(C(=O)NC)cc4)nc3c2)CC1 [B118, Propyl 4-(4-chloro-2-(4-(methylcarbamoyl)phenyl)quinoline-7-carbonyl)piperazine-1-carboxylate], CCCOC(=O)N1CCN(C(=O)c2ccc3c(Cl)cc(-c4ccc5c(cnn5C)c4)nc3c2)CC1 [B123] is 1.7-fold lower in IC50: 250 nM for the first, 150 nM for the second. The second is the more potent here.

Compared with CCCOC(=O)N1CCN(C(=O)c2ccc3c(Cl)cc(-c4ccc(NC(C)=O)cc4)nc3c2)C[C@H]1C [B121, Propyl (R)-4-(2-(4-acetamidophenyl)-4-chloroquinoline-7-carbonyl)-2-methylpiperazine-1-carboxylate], CCCOC(=O)N1CCN(C(=O)c2ccc3c(Cl)cc(-c4cnc5[nH]ccc5c4)nc3c2)C[C@H]1C [B132, Propyl (R)-4-(4-chloro-2-(1H-pyrrolo[2,3-b]pyridin-5-yl)quinoline-7-carbonyl)-2-methylpiperazine-1-carboxylate] is 3.1-fold higher in IC50: 55 nM for the first, 170 nM for the second.

Going from CCCOC(=O)N1CCN(C(=O)c2ccc3c(Cl)cc(C4CC4)nc3c2)CC1 [B125, Propyl 4-(4-chloro-2-cyclopropylquinoline-7-carbonyl)piperazine-1-carboxylate] to CCCOC(=O)N1CCN(C(=O)c2ccc3c(Cl)cc(-c4ccc(CN(C)C)s4)nc3c2)CC1 [B126, Propyl 4-(4-chloro-2-(5-((dimethylamino)methyl)thiophen-2-yl)quinoline-7-carbonyl)piperazine-1-carboxylate], the IC50 falls from 560 nM to 89 nM (6.3-fold). The second is the more potent here.

Compared with CCCOC(=O)N1CCN(C(=O)c2ccc3c(Cl)cc(-c4ccc5nn(C)cc5c4)nc3c2)CC1 [B127, Propyl 4-(4-chloro-2-(2-methyl-2H-indazol-5-yl)quinoline-7-carbonyl)piperazine-1-carboxylate], CCCOC(=O)N1CCN(C(=O)c2ccc3c(Cl)cc(-c4ccc5[nH]ncc5c4)nc3c2)CC1 [B128, Propyl 4-(4-chloro-2-(1H-indazol-5-yl)quinoline-7-carbonyl)piperazine-1-carboxylate] is 2.5-fold higher in IC50: 21 nM for the first, 53 nM for the second. The first is the more potent here.

Compared with CCCOC(=O)N1CCN(C(=O)c2ccc3c(Cl)cc(-c4ccc5cn[nH]c5c4)nc3c2)CC1 [B129, Propyl 4-(4-chloro-2-(1H-indazol-6-yl)quinoline-7-carbonyl)piperazine-1-carboxylate], CCCOC(=O)N1CCN(C(=O)c2ccc3c(Cl)cc(-c4ccnc(OC)c4)nc3c2)C[C@H]1C [B131, Propyl (R)-4-(4-chloro-2-(2-methoxypyridin-4-yl)quinoline-7-carbonyl)-2-methylpiperazine-1-carboxylate] is 4.1-fold higher in IC50: 87 nM for the first, 360 nM for the second. The first is the more potent here.
